Patent publication US11123292B2, “Use of biocompatible microdroplets for the treatment of atherosclerosis, heart disease and stroke” (priority 2014, dated 2021)
Like-named read-outs stand apart in the source and are kept apart here.

How the values were obtained:
[1] = Water insoluble solvents tested for dissolving cholesterol / arterial plaque; settings: medium not stated
From the text: (§1) To effectively dissolve arterial plaque in-vivo it is very important that the biocompatible solvent be sufficiently insoluble in blood to allow a small discrete microdroplet to travel through the blood stream, from the injection point, to the plaque which is being treated. If the biocompatible solvent dissolves within the blood, such as an alcohol, the solubility parameters of the resultant mixture will be very nearly identical to that of blood and will not dissolve cholesterol or arterial plaque. Conversely, if a discrete microdroplet of the biocompatible solvent makes contact with the plaque, then the cholesterol molecule in the plaque will be surrounded by multiple molecules of the biocompatible solvent, which have similar solubility parameters as the cholesterol, and the cholesterol will be drawn away from the plaque and into the droplet. […] An organic salt, Esters, an organo-metallic compound could also be used as the main component or an addition to the biocompatible microdroplet solvent means. Essentially any organic molecule which can be administered intravenously with acceptable side effects, is sufficiently insoluble in blood to travel as a discrete microdroplet without being dissolved prior to reaching arterial plaque and which is capable of dissolving cholesterol, cholesterol esters or other materials within the arterial plaque, could potentially be used.

[2] = single compound; cited from earlier work
[3] = Relative Energy Difference (RED) with cholesterol, calculated from HSP; settings: for Relative Energy Difference (RED) with cholesterol: RED=Ra/Ro, Ro of cholesterol 12.6; for Ra^2 versus cholesterol: Eq. 1
Procedure: The extent to which two compounds will dissolve each other can be quantified using the equations developed by Hansen: (Ra)^2=4(δd2−δd1)^2+(δp2−δp1)^2+(δh2−δh1)^2 Eq. (1) RED=Ra/Ro Eq. (2)
Equation 1 calculates the relative magnitude difference of the three Hansen parameters of the two compounds to arrive at Ra. […] Equation 2 allows one to calculate the Relative Energy Difference (RED) of the solvent and the material we are trying to dissolve, by dividing Ra by Ro. Ra was calculated in Equation 1 and measures the magnitude of the difference of the HSP values of the two compounds. The units for the HSP parameters δd, δp, δh are MPa^1/2. […] The Relative Energy Difference (RED) is a dimensionless number which quantifies how well a solvent will dissolve a solute. For an RED>>1 the compounds will not dissolve. For an RED˜1, there will be some dissolution. For an RED<1 there will be a considerable amount of dissolution. Essentially, the smaller RED value, the more solute will dissolve into the solvent, with RED=1 being a threshold where a given solute is starting to be soluble in a given solvent.
Referring now to FIG. 6, this diagram provides a flow chart showing how the biocompatible microdroplet solvent emulsion can be formulated. […] For an example of compounds which might be included in 400, please refer to Tables 1, 2, 3 and 4. However, this list of tables is by no means exhaustive and other compounds could be added to this list. The number of compounds selected can comprise of 1, 2, 3 or as many as are deemed necessary, which is symbolized by the variable n. The HSP parameters of a homogenous mixture of compounds are the weighted average of the HSP parameters of the individual components. […] Ideally, it is possible to formulate a solution such that the resultant RED of the mixture is smaller than the RED of any of the individual components.
The δdm, δpm, δhm calculated using Eq. 9 are the Hansen solubility parameters of the homogenous mixture, where m denotes mixture, and fi depicts the fraction of each of the n components used to fabricate the biocompatible solvent. Equation 10 can be used to calculate the RED of the final mixture, where Ro is the interaction radius of the cholesterol, or other component of arterial plaque one desires to dissolve using the biocompatible microdroplets and […] represents the Hansen solubility constants of cholesterol (dispersion, polar and hydrogen bonding components) or the HSP parameter of the arterial plaque which is being targeted.

[4] = cited from earlier work
[5] = cited from earlier work; remark: listed apart in the source
[6] = cited from earlier work; for LD50 dose: route not stated
[7] = Dissolving cholesterol by microdroplets in whole blood; settings: whole blood
From the text: as §1
(§2) 1,8-cineole is classified as a cyclic ether and a monoterpenoid. […] This chemical gives certain fruits such as apples and strawberries their fruity taste, and is used as an additive in bubble gums for this purpose. […] It is used as a fragrance or flavouring agent. […] It is produced natuarally by the organism, and is found in abundance in shark liver oil.

[8] = cited from earlier work; for mass fraction of cholesterol which will dissolve in a pure solution of the alcohol: 37° C.
[9] = Dissolving cholesterol by microdroplets in a dilute solution in water
From the text: as §2

Brc1cccc2ccccc12 [1-Bromonaphthalene]
result of solvent testing (dissolving cholesterol) [1]: very promising results

CC(=O)c1ccccc1 [Acetophenone]
δd London dispersion HSP parameter [2]: 19.6 MPa^1/2 | δh hydrogen bonding HSP parameter [2]: 3.7 MPa^1/2 | δp polarity HSP parameter [2]: 8.6 MPa^1/2 | Relative Energy Difference (RED) with cholesterol [3]: 0.66 | solubility in water / water based blood ([4]; in words): somewhat soluble in water

CC/C=C\C/C=C\C/C=C\CCCCCCCC(=O)O [Alpha-linolenic acid]
result of solvent testing (dissolving cholesterol) [1]: very promising results

O=C(O)c1ccccc1 [Benzoic acid]
time to excretion in the urine ([5]; after ingestion): ≤ 24 h

O=C(OCc1ccccc1)c1ccccc1 [Benzyl benzoate]
δd London dispersion HSP parameter [2]: 20 MPa^1/2 | δh hydrogen bonding HSP parameter [2]: 5.2 MPa^1/2 | δp polarity HSP parameter [2]: 5.1 MPa^1/2 | Ra^2 versus cholesterol [3]: 24 | LD50 dose [6]: 1.68 g/kg

Cc1ccc(C(C)C)cc1O [Carvacrol]
δd London dispersion HSP parameter [2]: 16.5 MPa^1/2 | δh hydrogen bonding HSP parameter [2]: 11.4 MPa^1/2 | δp polarity HSP parameter [2]: 3.2 MPa^1/2 | Relative Energy Difference (RED) with cholesterol [3]: 0.64 | efficacy of microdroplets at dissolving cholesterol in whole blood [7]: excellent results | solubility in water / water based blood [4]: insoluble in water

CCOC(=O)OCC [Diethyl carbonate]
δd London dispersion HSP parameter [2]: 16.6 MPa^1/2 | δh hydrogen bonding HSP parameter [2]: 6.1 MPa^1/2 | δp polarity HSP parameter [2]: 3.1 MPa^1/2 | LD50 ([6]; oral): 8500 mg/kg

c1ccc(Oc2ccccc2)cc1 [Diphenyl ether]
δd London dispersion HSP parameter [2]: 19.5 MPa^1/2 | δh hydrogen bonding HSP parameter [2]: 5.8 MPa^1/2 | δp polarity HSP parameter [2]: 3.4 MPa^1/2 | Ra^2 versus cholesterol [3]: 17 | Relative Energy Difference (RED) with cholesterol [3]: 0.32 | LD50 dose [6]: 2.85 g/kg of body weight | excreted in the urine ([5]; once absorbed): 90% | efficacy of microdroplets at dissolving cholesterol in whole blood [7]: excellent results

CC/C=C\C/C=C\C/C=C\C/C=C\C/C=C\CCCC(=O)O [Elcosapentaenoic acid]
result of solvent testing (dissolving cholesterol) [1]: very promising results

CCO [Ethanol, reference compound]
mass fraction of cholesterol which will dissolve in a pure solution of the alcohol [8]: 3.3% | Relative Energy Difference (RED) with cholesterol [3]: 1.32

C=CCc1ccc(O)c(OC)c1 [Eugenol]
δd London dispersion HSP parameter [2]: 18.1 MPa^1/2 | δh hydrogen bonding HSP parameter [2]: 11.6 MPa^1/2 | δp polarity HSP parameter [2]: 7.1 MPa^1/2 | Ra^2 versus cholesterol [3]: 44 | Relative Energy Difference (RED) with cholesterol [3]: 0.53 | efficacy of microdroplets at dissolving cholesterol in whole blood [7]: excellent results

C=C(C)[C@H]1CC=C(C)CC1 [Limonene]
δd London dispersion HSP parameter [2]: 17.2 MPa^1/2 | δh hydrogen bonding HSP parameter [2]: 4.3 MPa^1/2 | δp polarity HSP parameter [2]: 1.8 MPa^1/2 | dissolving cholesterol in a dilute solution in water [9]: dissolved cholesterol | efficacy of microdroplets at dissolving cholesterol in whole blood [7]: the cholesterol sample seemed to accumulate precipitate and swell

CCCCC/C=C\C/C=C\CCCCCCCC(=O)O [Linoleic acid]
result of solvent testing (dissolving cholesterol) [1]: very promising results

CCCO [Propanol, reference compound]
mass fraction of cholesterol which will dissolve in a pure solution of the alcohol [8]: 11% | Relative Energy Difference (RED) with cholesterol [3]: 1.10

CC(C)CCC[C@@H](C)[C@H]1CC[C@H]2[C@@H]3CC=C4C[C@@H](O)CC[C@]4(C)[C@H]3CC[C@]12C [cholesterol, Cholesterol]
solubility of cholesterol in pure water ([8]; 30° C.): approximately 95 micrograms per litre | solubility of cholesterol in water ([8]; 30° C.): 0.000095 grams/litre | δd London dispersion HSP parameter [2]: 20.4 MPa^1/2 | δh hydrogen bonding HSP parameter [2]: 9.4 MPa^1/2 | δp polarity HSP parameter [2]: 2.8 MPa^1/2

O [water, reference compound]
mass fraction of cholesterol which will dissolve in pure water ([8]; pure water): 0.0000095% | Relative Energy Difference (RED) with cholesterol [3]: 2.9
